No end group written: not given here.
System: neonatal fibroblasts
Assay: SU-ECM invasion assay, neonatal fibroblasts
Assay type: cell-based, human
Excerpt: In one example cells for the invasion assay are harvested by rinsing in Hanks' balanced salt solution, followed by brief treatment with 0.25% trypsin, 0.02% EDTA, and pelleting and resuspension in the appropriate medium with or without 5% FCS at a density of about 50,000 cells per ml. When appropriate, purified bovine plasma fibronectin (from Sigma, St. Louis, Mo), purified 120 kDa chymotryptic fragment (Gibco BRL) or PHSRN peptides (synthesized at the Biomedical Research Core Facilities of the University of Michigan) are added to the resuspended cells prior to placement of the cells on SU-ECM. In each well of a plate used for an invasion assay, SU-ECM were placed in 0.5 ml of the appropriate medium, and 0.5ml of the resuspended cells dropped on their exterior surfaces. Invasion assays were incubated 1 to 16 hours prior to assay. If some circumstances, invasion assays were fixed in phosphate-buffered saline (PBS) with 2% formaldehyde for 5 minutes at room temperature, then rinsed into PBS.
Invasion assays are coded and scored blindly by microscopic examination under phase contrast at 200- and 400-fold magnification. Each cell contacting an SU-ECM is scored for its position relative to the exterior or interior surfaces. A cell is judged to have invaded if it is located on an interior surface below the focal plane passing through the upper surface of the SU-ECM, but above the focal plane passing through its lower surface. The minimum viability of the cells in each assay is always ascertained at the time of assay by determining the fraction of spread, adherent cells on the bottom of each well scored.
An invasion frequency is defined as the fraction of cells in contact with basement membranes which are located in their interiors at the time of assay. Thus, an invasion frequency of 1 denotes invasion by 100% of the cells in contact with basement membranes. Invasion frequencies are determined multiple times for each cell type assayed. For each type of cell assayed the mean and standard deviation of the invasion frequencies were calculated.
In this example, the invasiveness of neonatal fibroblasts into an SU-ECM invasion substrate is considered. Experiments were performed under serum-free conditions, or in medium with 10% fetal calf serum (FCS). Neither serum-free medium nor medium containing serum supported fibroblast invasion. However, consistent with the induction of metalloproteinase gene transcription by the 120 kDa fragment of plasma fibronectin (pFn) containing the cell-binding domain, the 120 kDa fragment induced fibroblast invasion in the presence or in the absence of serum. […]

In the case of PHSRN [PHSRN], the “induction of fibroblast invasion of SU-ECM, dose response” value (10 to 3000 ng per ml, presence or absence of serum, log-linear, Figure 10) is reported as “able to induce fibroblast invasion”, the “induction of fibroblast invasion of SU-ECM” value (in the presence (10% FCS) or absence of serum, molar concentration equivalent to plasma fibronectin in serum, Figure 9) is reported as “contained all the invasion-stimulatory activity” and the “induction of fibroblast invasion of SU-ECM” value (serum-free SU-ECM) is reported as “induced”.

Reference: patent EP1388013B1, “COMPOSITIONS AND METHODS FOR THE USE OF FIBRONECTIN FRAGMENTS IN THE DIAGNOSIS OF CANCER” (THE REGENTS OF THE UNIVERSITY OF MICHIGAN, priority 2001, dated 2002)
